This note sets out measurements from ChEMBL document CHEMBL1201862, “PubChem BioAssay data set” (2004).

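Interpolation was linear, between the two tested concentrations surrounding the appropriate level; five concentrations were tested over 48 hours in 96-well plates. GI50 = concentration required for 50% inhibition of growth.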 Active and inactive are the calls of the source. No stated cut-off is given here; in the data, active = GI50 up to about 1.1 µM and inactive = higher.

Some test systems named below: CAKI-1; RPMI-8226; HCT-15; SNB-75; MDA-MB-435; EKVX; SK-MEL-2; M14; NCI-H226; HOP-62; Malme-3M; TK-10; NCI-H522; HOP-92; HCC 2998; LOX IMVI; MOLT-4; UACC-257; UACC-62.
Assay in all cases: NCI anticancer screen, dose series, 48 h

For `CC(=O)OC1COC(n2c(-c3ccc(Cl)cc3)cc(-c3ccccc3)c(C#N)c2=S)C(OC(C)=O)C1OC(C)=O` (stereo unspecified), the GI50 was 19.7 µM (inactive) in the test with CAKI-1; 29.9 µM (inactive) in the test on RPMI-8226; 23.4 µM with HCT-15; 15.7 µM (inactive) in the test on SNB-75; 7.19 µM (inactive) in the test on MDA-MB-435; 58.5 µM (inactive) with EKVX. Besides, the GI50 is 12 µM (inactive) with SK-MEL-2; 17.2 µM (inactive) in the test with M14; 16.3 µM (inactive) with NCI-H226; 9.23 µM (inactive) in the test with HOP-62; 49.9 µM (inactive) in the test with Malme-3M; 31.6 µM (inactive) with TK-10. Moreover, the GI50 is 40.5 µM (inactive) in the test with NCI-H522; 12.9 µM (inactive) in the test on HOP-92; 31.6 µM (inactive) in the test on HCC 2998; 3.58 µM (inactive) in the test on LOX IMVI; 50.1 µM (inactive) in the test on MOLT-4; 41.6 µM (inactive) in the test with UACC-257. In addition, in the test on UACC-62, the GI50 was 19.1 µM (inactive).

Turning to `C[C@@H](NC(=O)Cn1c(Cl)nc2ccccc21)c1ccccc1`, the GI50 with CAKI-1 was > 100 µM (inactive); in the test with RPMI-8226, > 100 µM (inactive); in the test with HCT-15, > 100 µM; with SNB-75, > 100 µM (inactive); with MDA-MB-435 it was > 100 µM (inactive); in the test with EKVX it was 26.7 µM (inactive). Further, the GI50 in the test on SK-MEL-2, in the test with M14, with NCI-H226, in the test on HOP-62, with Malme-3M and with TK-10 was > 100 µM (inactive) in each case. The GI50 was 38.2 µM (inactive) with NCI-H522; > 100 µM (inactive) with HOP-92; > 100 µM (inactive) in the test with HCC 2998; 75.7 µM (inactive) in the test on LOX IMVI; > 100 µM (inactive) in the test with MOLT-4; > 100 µM (inactive) with UACC-257. Moreover, in the test with UACC-62, the GI50 was > 100 µM (inactive).

Consider `C=C(C)[C@@H]1CC[C@]2(C(=O)OC3OC(COC4OC(CO)C(OC5OC(C)C(O)C(O)C5O)C(O)C4O)C(O)C(O)C3O)CC[C@]3(C)[C@H](CC[C@@H]4[C@@]5(C)CC[C@H](O)[C@@](C)(CO)[C@@H]5CC[C@]43C)[C@@H]12` (stereo partly specified), for which the GI50 is 3.4 µM (inactive) in the test with CAKI-1; 0.929 µM (active) with RPMI-8226; 2.39 µM in the test on HCT-15; 4.39 µM (inactive) in the test with SNB-75; 3.51 µM (inactive) in the test with MDA-MB-435; 2.2 µM (inactive) with EKVX. The GI50 is 2.39 µM (inactive) with SK-MEL-2; 3.48 µM (inactive) in the test on M14; 3.16 µM (inactive) in the test with NCI-H226; 3.61 µM (inactive) with HOP-62; 3.78 µM (inactive) in the test with Malme-3M; 3.49 µM (inactive) with TK-10. For the same compound, the GI50 was 2.66 µM (inactive) with NCI-H522; 3.1 µM (inactive) with HOP-92; 2.56 µM (inactive) with HCC 2998; 2.58 µM (inactive) in the test with LOX IMVI; 0.39 µM (active) in the test on MOLT-4; 4.63 µM (inactive) in the test with UACC-257. The GI50 in the test on UACC-62 was 1.99 µM (inactive).

For `O=C1Nc2ccc(Br)cc2/C1=N/c1ccc2c(c1)OCO2`, the GI50 in the test on CAKI-1 was 20.3 µM (inactive); in the test with RPMI-8226, 18.5 µM (inactive); in the test on HCT-15 it was 19.8 µM; with SNB-75, 31.6 µM (inactive); in the test on MDA-MB-435, 9.35 µM (inactive); in the test on EKVX it was 25.8 µM (inactive). For the same compound, the GI50 in the test with SK-MEL-2 is 17.7 µM (inactive); in the test with M14, 20.5 µM (inactive); in the test with NCI-H226 it was 24.3 µM (inactive); with HOP-62, 20.2 µM (inactive); in the test on Malme-3M, 18.7 µM (inactive); with TK-10, 27.3 µM (inactive). The GI50 was 19.1 µM (inactive) in the test on NCI-H522; 50.1 µM (inactive) in the test with HOP-92; 15.7 µM (inactive) in the test on HCC 2998; 23.1 µM (inactive) in the test on LOX IMVI; 16.6 µM (inactive) in the test with MOLT-4; 18.3 µM (inactive) in the test with UACC-257. For the same compound, the GI50 with UACC-62 is 15.7 µM (inactive).
